± gives the standard deviation of the averaged measurements.
Columns and labels:
Assay in all cases: level (log10 ratio to DMSO vehicle control); higher = higher biomarker level / cell amount than vehicle control
Conditions in all cases: in DMSO
[1] = compound: CCN(CCO)S(=O)(=O)C(F)(F)C(F)(F)C(F)(F)C(F)(F)C(F)(F)C(F)(F)C(F)(F)C(F)(F)F [N-Ethyl-N-(2-hydroxyethyl)perfluorooctanesulfonamide]
Description: (§1)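 BioMAP Diversity Plus panel of 12 human primary cell co-culture systems (3C, 4H, LPS, SAg, BT, BF4T, BE3C, CASM3C, HDF3CGF, KF3CT, MyoF, Mphg). Compounds were added 1 h before stimulation and left for 24 h (MyoF 48 h; BT 72 h for soluble read-outs or 6 d for IgG). Biomarkers were read by ELISA, cytotoxicity by SRB, PBMC viability and proliferation by Alamar Blue. Each well value was divided by the mean of 8 DMSO control wells on the same plate and log10 transformed; duplicate blinded samples were tested at 4 concentrations.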

[2] = compound: FC(F)(F)C(F)(F)C(F)(F)C(F)(F)C(F)(F)C(F)(F)I [Perfluoro-1-iodohexane]
Description: as §1

[3] = compound: NC(=O)C(F)(F)C(F)(F)F [Pentafluoropropionamide]
Description: as §1

[4] = compound: NCC(F)(F)C(F)(F)C(F)(F)C(F)(F)C(F)(F)C(F)(F)C(F)(F)F [1H,1H-Perfluorooctylamine]
Description: as §1

[5] = compound: O=C(O)C(F)(F)C(F)(F)C(F)(F)C(F)(F)C(F)(F)C(F)(F)C(F)(F)C(F)(F)C(F)(F)F [Perfluorodecanoic acid]
Description: as §1

[6] = compound: O=C(O)C(F)(F)C(F)(F)C(F)(F)C(F)(F)C(F)(F)C(F)(F)C(F)(F)C(F)F [9-H-Perfluorononanoic acid]
Description: as §1

[7] = compound: O=C(O)C(F)(F)OC(F)(F)C(F)(F)OC(F)(F)F [Perfluoro-3,6-dioxaheptanoic acid]
Description: as §1

HDF3CGF:M-CSF
level (log10) ([1]; 6700 nM): -0.101 ± 0.013 | level (log10) ([1]; 20000 nM): -0.27 ± 0.0071 | level (log10) ([2]; 6700 nM): 0.0155 ± 0.019 | level (log10) ([2]; 20000 nM): 0.024 ± 0.0028 | level (log10) ([2]; 60000 nM): -0.021 ± 0.034 | level (log10) ([3]; 6700 nM): 0.0015 ± 0.011 | level (log10) ([3]; 20000 nM): -0.0135 ± 0.0035 | level (log10) ([3]; 60000 nM): 0.0085 ± 0.06 | level (log10) ([4]; 6700 nM): -0.0255 ± 0.0064 | level (log10) ([4]; 20000 nM): -0.031 ± 0.061 | level (log10) ([4]; 60000 nM): -0.027 ± 0.069 | level (log10) ([5]; 6700 nM): 0.023 ± 0.0057 | level (log10) ([5]; 20000 nM): -0.275 ± 0.018 | level (log10) ([6]; 6700 nM): -0.067 ± 0.0028 | level (log10) ([6]; 20000 nM): -0.0835 ± 0.011 | level (log10) ([6]; 60000 nM): -0.05 ± 0.027 | level (log10) ([7]; 6700 nM): -0.015 ± 0.0099 | level (log10) ([7]; 20000 nM): -0.013 ± 0.0042 | level (log10) ([7]; 60000 nM): -0.0105 ± 0.05

CASM3C:CXCL8/IL-8
level (log10) ([1]; 6700 nM): -0.0075 ± 0.016 | level (log10) ([1]; 20000 nM): -0.024 ± 0.0085 | level (log10) ([2]; 6700 nM): 0.0055 ± 0.0092 | level (log10) ([2]; 20000 nM): -0.0005 ± 0.0078 | level (log10) ([2]; 60000 nM): 0.011 ± 0.021 | level (log10) ([3]; 6700 nM): -0.007 ± 0.014 | level (log10) ([3]; 20000 nM): -0.017 ± 0.0071 | level (log10) ([3]; 60000 nM): -0.0005 ± 0.012 | level (log10) ([4]; 6700 nM): -0.005 ± 0.0057 | level (log10) ([4]; 20000 nM): -0.022 ± 0.013 | level (log10) ([4]; 60000 nM): 0.005 ± 0.027 | level (log10) ([5]; 6700 nM): -0.0035 ± 0.0064 | level (log10) ([5]; 20000 nM): -0.006 ± 0.0028 | level (log10) ([6]; 6700 nM): -0.002 ± 0.0057 | level (log10) ([6]; 20000 nM): -0.0045 ± 0.00071 | level (log10) ([6]; 60000 nM): 0.0035 ± 0.0035 | level (log10) ([7]; 6700 nM): 0.011 ± 0.037 | level (log10) ([7]; 20000 nM): 0.018 ± 0.052 | level (log10) ([7]; 60000 nM): 0.0295 ± 0.039

HDF3CGF:EGFR
level (log10) ([1]; 6700 nM): -0.102 ± 0.024 | level (log10) ([1]; 20000 nM): -0.115 ± 0.0021 | level (log10) ([2]; 6700 nM): 0.016 ± 0.05 | level (log10) ([2]; 20000 nM): 0.0115 ± 0.043 | level (log10) ([2]; 60000 nM): -0.035 ± 0.14 | level (log10) ([3]; 6700 nM): 0.006 ± 0.0085 | level (log10) ([3]; 20000 nM): -0.005 ± 0.011 | level (log10) ([3]; 60000 nM): 0.007 ± 0.021 | level (log10) ([4]; 6700 nM): -0.039 ± 0.047 | level (log10) ([4]; 20000 nM): -0.047 ± 0.073 | level (log10) ([4]; 60000 nM): -0.034 ± 0.086 | level (log10) ([5]; 6700 nM): -0.075 ± 0.054 | level (log10) ([5]; 20000 nM): -0.195 ± 0.026 | level (log10) ([6]; 6700 nM): -0.011 ± 0.0028 | level (log10) ([6]; 20000 nM): -0.024 ± 0.0057 | level (log10) ([6]; 60000 nM): -0.034 ± 0.014 | level (log10) ([7]; 6700 nM): 0.033 ± 0.0071 | level (log10) ([7]; 20000 nM): 0.031 ± 0.047 | level (log10) ([7]; 60000 nM): 0.048 ± 0.054

CASM3C:CXCL9/MIG
level (log10) ([1]; 6700 nM): -0.0675 ± 0.005 | level (log10) ([1]; 20000 nM): -0.166 ± 0.073 | level (log10) ([2]; 6700 nM): -0.0015 ± 0.0064 | level (log10) ([2]; 20000 nM): 0.002 ± 0.0028 | level (log10) ([2]; 60000 nM): -0.0025 ± 0.036 | level (log10) ([3]; 6700 nM): 0 ± 0.0014 | level (log10) ([3]; 20000 nM): -0.0035 ± 0.005 | level (log10) ([3]; 60000 nM): -0.008 ± 0.0042 | level (log10) ([4]; 6700 nM): -0.014 ± 0.021 | level (log10) ([4]; 20000 nM): -0.0245 ± 0.0021 | level (log10) ([4]; 60000 nM): 0.006 ± 0.04 | level (log10) ([5]; 6700 nM): -0.012 ± 0.0028 | level (log10) ([5]; 20000 nM): -0.0055 ± 0.0064 | level (log10) ([6]; 6700 nM): -0.024 ± 0.017 | level (log10) ([6]; 20000 nM): -0.0155 ± 0.0092 | level (log10) ([6]; 60000 nM): 0.0205 ± 0.00071 | level (log10) ([7]; 6700 nM): 0.028 ± 0.058 | level (log10) ([7]; 20000 nM): 0.0245 ± 0.083 | level (log10) ([7]; 60000 nM): 0.0415 ± 0.087

MyoF:PAI-I
level (log10) ([1]; 6700 nM): -0.0065 ± 0.0064 | level (log10) ([1]; 20000 nM): -0.0085 ± 0.018 | level (log10) ([2]; 6700 nM): -0.001 ± 0.0028 | level (log10) ([2]; 20000 nM): -0.025 ± 0.0057 | level (log10) ([2]; 60000 nM): -0.12 ± 0.054 | level (log10) ([3]; 6700 nM): 0.0075 ± 0.0021 | level (log10) ([3]; 20000 nM): -0.002 ± 0.0071 | level (log10) ([3]; 60000 nM): -0.004 ± 0.0057 | level (log10) ([4]; 6700 nM): 0 ± 0.016 | level (log10) ([4]; 20000 nM): -0.002 ± 0.014 | level (log10) ([4]; 60000 nM): -0.005 ± 0.013 | level (log10) ([5]; 6700 nM): 0.0035 ± 0.012 | level (log10) ([5]; 20000 nM): 0.0205 ± 0.025 | level (log10) ([6]; 6700 nM): -0.0075 ± 0.011 | level (log10) ([6]; 20000 nM): 0.004 ± 0.0042 | level (log10) ([6]; 60000 nM): -0.0025 ± 0.0092 | level (log10) ([7]; 6700 nM): -0.019 ± 0.038 | level (log10) ([7]; 20000 nM): -0.0245 ± 0.03 | level (log10) ([7]; 60000 nM): -0.0275 ± 0.025

lMphg:IL-1alpha
level (log10) ([1]; 6700 nM): -0.018 ± 0.054 | level (log10) ([1]; 20000 nM): -0.0235 ± 0.018 | level (log10) ([2]; 6700 nM): 0.008 ± 0.0057 | level (log10) ([2]; 20000 nM): 0.0525 ± 0.019 | level (log10) ([2]; 60000 nM): 0.027 ± 0.011 | level (log10) ([3]; 6700 nM): -0.0005 ± 0.016 | level (log10) ([3]; 20000 nM): -0.0055 ± 0.0092 | level (log10) ([3]; 60000 nM): 0.0355 ± 0.083 | level (log10) ([4]; 6700 nM): -0.005 ± 0.016 | level (log10) ([4]; 20000 nM): -0.0045 ± 0.013 | level (log10) ([4]; 60000 nM): 0.0045 ± 0.0092 | level (log10) ([5]; 6700 nM): 0.0085 ± 0.0078 | level (log10) ([5]; 20000 nM): 0.013 ± 0.02 | level (log10) ([6]; 6700 nM): -0.002 ± 0.017 | level (log10) ([6]; 20000 nM): 0.0105 ± 0.0092 | level (log10) ([6]; 60000 nM): 0.042 ± 0.057 | level (log10) ([7]; 6700 nM): -0.0025 ± 0.046 | level (log10) ([7]; 20000 nM): 0.007 ± 0.035 | level (log10) ([7]; 60000 nM): -0.005 ± 0.027

lMphg:CD40
level (log10) ([1]; 6700 nM): -0.025 ± 0.017 | level (log10) ([1]; 20000 nM): -0.0335 ± 0.018 | level (log10) ([2]; 6700 nM): -0.011 ± 0.0071 | level (log10) ([2]; 20000 nM): -0.0265 ± 0.0035 | level (log10) ([2]; 60000 nM): -0.0375 ± 0.013 | level (log10) ([3]; 6700 nM): -0.0235 ± 0.022 | level (log10) ([3]; 20000 nM): -0.017 ± 0.011 | level (log10) ([3]; 60000 nM): -0.0115 ± 0.013 | level (log10) ([4]; 6700 nM): 0.0025 ± 0.005 | level (log10) ([4]; 20000 nM): -0.0125 ± 0.035 | level (log10) ([4]; 60000 nM): -0.069 ± 0.054 | level (log10) ([5]; 6700 nM): -0.0025 ± 0.039 | level (log10) ([5]; 20000 nM): -0.0385 ± 0.05 | level (log10) ([6]; 6700 nM): 0.014 ± 0.011 | level (log10) ([6]; 20000 nM): 0.003 ± 0.017 | level (log10) ([6]; 60000 nM): -0.01 ± 0.024 | level (log10) ([7]; 6700 nM): -0.0125 ± 0.0035 | level (log10) ([7]; 20000 nM): 0.0065 ± 0.028 | level (log10) ([7]; 60000 nM): -0.0055 ± 0.036
